Measurements taken from patent US8921308B2, “Antimicrobial peptide, branched forms thereof and their use in the treatment of bacteria infections” (priority 2010, dated 2014).
Values after ≈ are worked out from the molar mass of the structure shown. Like-named read-outs stand apart in the source and are kept apart here.

Assays:
[1] = test system: Acinotebacter baumannii RUH 134; type: cell-based; details: 24 h
Description: (§1) Peptide MICs were determined against strains of several bacterial species, including Gram-negative and Gram-positive pathogens (Table 1 and 2). Activity of tetra-branched D-M33 was retained against MDR strains with various resistance mechanisms (such as extended-spectrum beta-lactamases and carbapenemases), including MDR P. aeruginosa strains from CF patients. The antimicrobial activity of tetra-branched D-M33 appeared slightly better with respect to tetra-branched L-M33 for MDR strains of Pseudomonas and one strain of Klebsiella and sensitively better respect to tetra-branched L-M33 for the two strains of Staphyloccoccus aureus reported in Table 1.

[2] = test system: Acinotebacter baumannii RUH 875; type: cell-based; details: 24 h
Description: as §1

E. coli ATCC 25922 = type: cell-based; details: ATCC 25922, 24 h
Description: as §1

[3] = test system: Klebsiella pneumoniae ATCC 13833; type: cell-based; details: ATCC 13833, 24 h
Description: as §1

P. aeruginosa PAO-1 = type: cell-based; details: PAO-1, 24 h
Description: as §1

[4] = test system: P. aeruginosa VenM rugosa 05/04/2005; type: cell-based; details: VenM rugosa 05/04/2005, 24 h
Description: as §1

E. faecalis ATCC 29212 = details: ATCC 29212, 24 h
Description: (§2) Minimum Inhibitory Concentration (MIC) was determined by a standard microdilution assay as recommended by the National Committee for Clinical Laboratory Standards (NCCLS) using cation-supplemented Mueller-Hinton (MH) broth (Oxoid Ltd. Basingstoke, UK) and a bacterial inoculum of 5×10^4 CFU per well, in a final volume of 100 μl. Results were recorded by visual inspection after 24 h of incubation at 37° C.

E. faecalis FI74B4 VSE = details: 24 h
Description: as §2

E. faecium FI81B1 VRE = details: 24 h
Description: as §2

E. faecium FI81B2 VSE = details: 24 h
Description: as §2

S. agalactiae ATCC 13813 = details: ATCC 13813, 24 h
Description: as §2

S. aureus ATCC 29213 = details: ATCC 29213, 24 h
Description: as §2

S. epidermidis 4761/1 = details: 4761/1, 24 h
Description: as §2

S. epidermidis 6154 = details: 6154, 24 h
Description: as §2

S. pneumoniae 47C12 = details: 47C12, 24 h
Description: as §2

S. pneumoniae 47D22 = details: 47D22, 24 h
Description: as §2

S. pneumoniae ATCC 49619 = details: ATCC 49619, 24 h
Description: as §2

[5] = test system: Staphylococcus aureus 3851; details: 3851, 24 h
Description: as §2

S. capitis ATCC 27840 = assay: MIC, microdilution assay; type: cell-based; details: S. capitis ATCC 27840, reference strain
Description: as §2

[6] = test system: S. epidermidis ATCC 14990; assay: MIC, microdilution assay; type: cell-based; details: S. epidermidis ATCC 14990, reference strain
Description: as §2

human erythrocytes = assay: Haemolysis of human erythrocytes (method of Parpart); type: cell-based; details: for haemolytic activity (percentage of haemolysis): red cells of human
Description: Effect of tetra-branched L-M33, D-M33 and monomeric Indolicidin on haemolysis of human erythrocytes. The figures show the haemolytic activity of the three peptides on human erythrocytes evaluated by means of erythrocyte osmotic resistance of Parpart method in NaCl. The percentage of haemolysis is calculated by means of a calibration curve obtained by incubating erythrocytes with increasing concentrations of NaCl. […] The percentage of haemolysis of untreated blood after 19 hours (control) is very limited (<1%).
Haemolysis of fresh human erythrocytes was determined using the method of Parpart, summarized as follows. A calibration curve was constructed by suspending fresh human erythrocytes in phosphate buffer (pH 7.4, 110 mM sodium phosphate) with various concentrations of NaCl and incubated for 30 min at room temperature. Samples were centrifuged at 500×g for 5 minutes, and haemoglobin release was monitored by measuring the absorbance of supernatants at 540 nm. The absorbance obtained with 0.1% NaCl corresponded to 100% lysis and that with 1% NaCl, to 0% lysis. Peptides dissolved in PBS were added to human erythrocyte solution at several concentrations. The resulting suspension was incubated separately at 37° C. for 2 h and 24 h. Release of hemoglobin was monitored by measuring the absorbance of the suspernatant at 540 nm after centrifuging and haemolysis percentage was calculated using the calibration curve.

E. coli TG1 = assay: In vivo antibacterial activity, lethal E. coli infection in mice; details: Balb-c mice, LD100 E. coli ip; single dose 10 mg/Kg ip 1 hour later
Description: (§3) In vivo antibacterial activity of tetra-branched D-M33 peptide. Balb-c mice (20 g) were intra-peritoneally injected with a lethal amount of E. coli TG1 cells (1×10^9 CFU). Continuous line (Ctr) indicates mice only injected ip with bacteria and no D-M33. Broken line indicates mice injected ip with bacteria and a single injection of D-M33 peptide 10 mg/Kg 1 hour later.
(§4) Tetra-branched D-M33 peptide was analysed for its antibacterial activity in mice infected with lethal amounts of the Gram-negative bacterium E. coli or the Gram-positive bacterium S. aureus.
(§5) Balb-c mice were infected with the LD100 of bacteria and treated 1 hour later with the peptide by ip administration.

S. aureus USA 300 = assay: In vivo antibacterial activity, lethal S. aureus infection in mice; details: Balb-c mice, LD100 S. aureus ip; single dose 25 mg/Kg ip 1 hour later
Description: as §3, with “S. aureus USA 300” for “E. coli TG1”, “(5×10^6 CFU) mixed in a 7% mucin solution. Control” for “(1×10^9 CFU). Continuous”, “D-M33” for “Broken”, “25” for “10”, “later. P<0.05.” for “later.”
as §4, §5

C. glabrata ATCC 90030 = details: ATCC 90030, 24 h
[7] = test system: C. parapsilosis ATCC 90018; details: ATCC 90018, 24 h
C. albicans 9833 = details: 9833, 24 h
C. tropicalis 6597 = details: 6597, 24 h
C. krusei ATCC 6268 = details: ATCC 6268, 24 h
[8] = animals treated ip, peptide dose 100 mg/Kg
Aureolysin = Aureolysin (Staphylococcus aureus, UniProt P81177); type: in vitro ADME; details: incubation with S. aureus Aureolysin, 1 hour / 24 hours
Sequence of Aureolysin (P81177 209-509): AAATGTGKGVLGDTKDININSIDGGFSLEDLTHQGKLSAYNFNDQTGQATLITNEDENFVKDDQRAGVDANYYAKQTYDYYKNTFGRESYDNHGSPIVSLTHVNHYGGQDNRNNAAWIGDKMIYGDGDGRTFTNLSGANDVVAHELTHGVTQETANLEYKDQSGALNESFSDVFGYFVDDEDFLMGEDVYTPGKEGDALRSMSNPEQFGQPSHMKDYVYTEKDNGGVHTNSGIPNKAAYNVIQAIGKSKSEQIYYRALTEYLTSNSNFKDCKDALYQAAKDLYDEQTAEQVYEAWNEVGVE
Description: HPLC profiles of tetra-branched peptides L-M33 (A) and D-M33 (B) after incubation with the protease Aureolysin derived from S. aureus.

Compound: CC[C@@H](C)[C@@H](NC(=O)[C@@H](CCCCN)NC(=O)[C@H](N)CCCCN)C(=O)N[C@H](CCCNC(=N)N)C(=O)N[C@@H](C(=O)N[C@H](CCCNC(=N)N)C(=O)N[C@H](CC(C)C)C(=O)N[C@H](CO)C(=O)N[C@H](C)C(=O)NCCCCC(NC(=O)[C@@H](C)NC(=O)[C@@H](CO)NC(=O)[C@@H](CC(C)C)NC(=O)[C@@H](CCCNC(=N)N)NC(=O)[C@H](NC(=O)[C@@H](CCCNC(=N)N)NC(=O)[C@H](NC(=O)[C@@H](CCCCN)NC(=O)[C@H](N)CCCCN)[C@H](C)CC)C(C)C)C(=O)NCCCCC(NC(=O)C(CCCCNC(=O)[C@@H](C)NC(=O)[C@@H](CO)NC(=O)[C@@H](CC(C)C)NC(=O)[C@@H](CCCNC(=N)N)NC(=O)[C@H](NC(=O)[C@@H](CCCNC(=N)N)NC(=O)[C@H](NC(=O)[C@@H](CCCCN)NC(=O)[C@H](N)CCCCN)[C@H](C)CC)C(C)C)NC(=O)[C@@H](C)NC(=O)[C@@H](CO)NC(=O)[C@@H](CC(C)C)NC(=O)[C@@H](CCCNC(=N)N)NC(=O)[C@H](NC(=O)[C@@H](CCCNC(=N)N)NC(=O)[C@H](NC(=O)[C@@H](CCCCN)NC(=O)[C@H](N)CCCCN)[C@H](C)CC)C(C)C)C(=O)NCCC(=O)O)C(C)C (stereo partly drawn) [D-M33, KKIRVRLSA]
- MIC [1]: 3 µM (≈ 14 µg/mL)
- MIC [2]: 3 µM (≈ 14 µg/mL)
- MIC (E. coli ATCC 25922): 1.5 µM (≈ 7.02 µg/mL)
- MIC [3]: 0.7 µM (≈ 3.28 µg/mL)
- MIC (P. aeruginosa PAO-1): 0.7 µM (≈ 3.28 µg/mL)
- MIC [4]: 0.7 µM (≈ 3.28 µg/mL)
- MIC (E. faecalis ATCC 29212): 0.7 µM (≈ 3.28 µg/mL)
- MIC (E. faecalis FI74B4 VSE): 0.7 µM (≈ 3.28 µg/mL)
- MIC (E. faecium FI81B1 VRE): 0.7 µM (≈ 3.28 µg/mL)
- MIC (E. faecium FI81B2 VSE): 0.7 µM (≈ 3.28 µg/mL)
- MIC (S. agalactiae ATCC 13813): 1.5 µM (≈ 7.02 µg/mL)
- MIC (S. aureus ATCC 29213): 3 µM (≈ 14 µg/mL)
- MIC (S. epidermidis 4761/1): 0.35 µM (≈ 1.64 µg/mL)
- MIC (S. epidermidis 6154): 0.35 µM (≈ 1.64 µg/mL)
- MIC (S. pneumoniae 47C12): 12 µM (≈ 56.2 µg/mL)
- MIC (S. pneumoniae 47D22): 6 µM (≈ 28.1 µg/mL)
- MIC (S. pneumoniae ATCC 49619): 6 µM (≈ 28.1 µg/mL)
- MIC [5]: 0.7 µM (≈ 3.28 µg/mL)
- MIC (S. capitis ATCC 27840): 0.35 µM (≈ 1.64 µg/mL)
- MIC [6]: 0.35 µM (≈ 1.64 µg/mL)
- haemolysis, result in words (human erythrocytes): negligible haemolysis grade
- haemolytic activity (percentage of haemolysis) (human erythrocytes): < 5%
- animals protected from signs of sepsis and death (seven-day survival) (E. coli TG1): 100%
- animals protected from signs of sepsis and death (seven-day survival) (S. aureus USA 300): 100%
- MIC (C. glabrata ATCC 90030): 12 µM (≈ 56.2 µg/mL)
- MIC [7]: 1.5 µM (≈ 7.02 µg/mL)
- MIC (C. albicans 9833): 24 µM (≈ 112 µg/mL)
- MIC (C. tropicalis 6597): 12 µM (≈ 56.2 µg/mL)
- MIC (C. krusei ATCC 6268): 6 µM (≈ 28.1 µg/mL)
- apparent toxicity signs [8]: did not produce apparent toxicity signs

Compound: CC[C@H](C)[C@H](NC(=O)[C@H](CCCCN)NC(=O)[C@@H](N)CCCCN)C(=O)N[C@@H](CCCNC(=N)N)C(=O)N[C@H](C(=O)N[C@@H](CCCNC(=N)N)C(=O)N[C@@H](CC(C)C)C(=O)N[C@@H](CO)C(=O)N[C@@H](C)C(=O)NCCCC[C@H](NC(=O)[C@H](C)NC(=O)[C@H](CO)NC(=O)[C@H](CC(C)C)NC(=O)[C@H](CCCNC(=N)N)NC(=O)[C@@H](NC(=O)[C@H](CCCNC(=N)N)NC(=O)[C@@H](NC(=O)[C@H](CCCCN)NC(=O)[C@@H](N)CCCCN)[C@@H](C)CC)C(C)C)C(=O)NCCCC[C@H](NC(=O)[C@H](CCCCNC(=O)[C@H](C)NC(=O)[C@H](CO)NC(=O)[C@H](CC(C)C)NC(=O)[C@H](CCCNC(=N)N)NC(=O)[C@@H](NC(=O)[C@H](CCCNC(=N)N)NC(=O)[C@@H](NC(=O)[C@H](CCCCN)NC(=O)[C@@H](N)CCCCN)[C@@H](C)CC)C(C)C)NC(=O)[C@H](C)NC(=O)[C@H](CO)NC(=O)[C@H](CC(C)C)NC(=O)[C@H](CCCNC(=N)N)NC(=O)[C@@H](NC(=O)[C@H](CCCNC(=N)N)NC(=O)[C@@H](NC(=O)[C@H](CCCCN)NC(=O)[C@@H](N)CCCCN)[C@@H](C)CC)C(C)C)C(=O)NCCC(=O)O)C(C)C [L-M33, KKIRVIRLSA, reference compound]
- MIC [1]: 1.5 µM (≈ 7.02 µg/mL)
- MIC [2]: 1.5 µM (≈ 7.02 µg/mL)
- MIC (E. coli ATCC 25922): 1.5 µM (≈ 7.02 µg/mL)
- MIC [3]: 1.5 µM (≈ 7.02 µg/mL)
- MIC (P. aeruginosa PAO-1): 1.5 µM (≈ 7.02 µg/mL)
- MIC [4]: 3 µM (≈ 14 µg/mL)
- MIC [5]: 6 µM (≈ 28.1 µg/mL)
- haemolytic activity (percentage of haemolysis) (human erythrocytes): < 5%
- degradation by protease Aureolysin (HPLC profile) (Aureolysin): degraded after only 1 hour of incubation

Compound: Indolicidin [reference compound]
- haemolysis, result in words (human erythrocytes; human erythrocytes (FIG. 2)): more haemolytic
